US20240044922A1, “DEVICE AND METHODS FOR MEASURING PLATELET-FIBRIN CLOT CONTRACTION KINETICS” (University of Kentucky Research Foundation, priority 2022, published 2024)
Several values for one entry are separate records, joined by “and”; a condition that tells them apart may be missing. Equal values may be shown once. Read-outs that look alike come from different tables or passages of the source. Bridge positions count the residues as written; N and C are the ends. Square brackets hold non-standard residues; d marks the D form. Peptide text beside a SMILES is read from it. hArg = N=C(N)NCCCC[C@H](N)C(=O)O; Mpa = O=C(O)CCS

System: washed mouse platelets
Assay: Clot contraction assay, time-lapse imaging of washed mouse platelets with thrombin, fibrinogen and CaCl2
Assay type: cell-based
[1] = eptifibatide 50 μM, standard conditions
[2] = eptifibatide 100 μM, standard conditions
[3] = eptifibatide 150 μM, standard conditions
[4] = fibrinogen 62 μg/mL, CaCl2 0.5 mM, thrombin 20 mU/mL
[5] = fibrinogen 125 μg/mL, CaCl2 0.5 mM, thrombin 20 mU/mL
[6] = fibrinogen 250 μg/mL, CaCl2 0.5 mM, thrombin 20 mU/mL
[7] = fibrinogen 500 μg/mL, CaCl2 0.5 mM, thrombin 20 mU/mL
[8] = fibrinogen 1000 μg/mL, CaCl2 0.5 mM, thrombin 20 mU/mL

**Q.** Which results are given for `N=C(N)NCCCC[C@@H]1NC(=O)CCSSC[C@@H](C(N)=O)NC(=O)[C@@H]2CCCN2C(=O)[C@H](Cc2c[nH]c3ccccc23)NC(=O)[C@H](CC(=O)O)NC(=O)CNC1=O` [Eptifibatide, eptifibatide, reference compound] ([Mpa][hArg]GDWPC-NH2; disulfide 1-7)?
**A.** AUC: 5.51 AU and 6.76 AU and 6.84 AU; Average Velocity [1]: 0.91 %/min; Clot Contraction Extent [1]: 89.56%; Lag time [1]: 29.33 min; PHASE 1 % Contraction [1]: 5.36%; PHASE 1 Rate 1 [1]: 3.93 ×10^−3 %/min; PHASE 1 t1 [1]: 14.33 min; PHASE 2 % Contraction [1]: 32.14%; PHASE 2 Rate 2 [1]: 1.96 %/min; PHASE 2 t2 [1]: 43.00 min; PHASE 3 % Contraction [1]: 52.91%; PHASE 3 Rate 3 [1]: 3.83 ×10^−2 %/min; Average Velocity [2]: 0.74 %/min; Clot Contraction Extent [2]: 73.02%; Lag time [2]: 46.67 min; PHASE 1 % Contraction [2]: 9.24%; PHASE 1 Rate 1 [2]: 4.00 ×10^−3 %/min; PHASE 1 t1 [2]: 26.00 min; PHASE 2 % Contraction [2]: 20.75%; PHASE 2 Rate 2 [2]: 1.08 %/min; PHASE 2 t2 [2]: 52.00 min; PHASE 3 % Contraction [2]: 43.03%; PHASE 3 Rate 3 [2]: 2.20 ×10^−2 %/min; Detection of the three phases of contraction (eptifibatide 150 μM): none of the three phases were detectible; Average Velocity [3]: 0.67 %/min; Clot Contraction Extent [3]: 66.08%; Lag time [3]: 50 min; Effect on average velocity of contraction (eptifibatide 50 to 150 μM): dose-dependent decrease; Effect on extent of contraction (eptifibatide 50 to 150 μM): dose-dependent decrease; Increase in lag time (eptifibatide 50 to 150 μM): ~4 fold

**Q.** What does the source list for Fibrinogen?
**A.** AUC [4]: 6.66 AU; Average Velocity [4]: 0.53 %/min; Clot Contraction Extent [4]: 53.50%; Lag time [4]: 46.67 min; PHASE 1 % Contraction [4]: 2.11%; PHASE 1 Rate 1 [4]: 1.50 ×10^−3 %/min; PHASE 1 t1 [4]: 13.00 min; PHASE 2 % Contraction [4]: 24.32%; PHASE 2 Rate 2 [4]: 1.19 %/min; PHASE 2 t2 [4]: 28.00 min; PHASE 3 % Contraction [4]: 43.44%; PHASE 3 Rate 3 [4]: 2.90 ×10^−2 %/min; AUC [5]: 4.13 AU; Average Velocity [5]: 1.00 %/min; Clot Contraction Extent [5]: 98.07%; Lag time [5]: 26.40 min; PHASE 1 % Contraction [5]: 2.72%; PHASE 1 Rate 1 [5]: 2.25 ×10^−3 %/min; PHASE 1 t1 [5]: 10.75 min; PHASE 2 % Contraction [5]: 37.99%; PHASE 2 Rate 2 [5]: 1.66 %/min; PHASE 2 t2 [5]: 30.75 min; PHASE 3 % Contraction [5]: 57.36%; PHASE 3 Rate 3 [5]: 5.90 ×10^−2 %/min; AUC [6]: 4.23 AU; Average Velocity [6]: 0.98 %/min; Clot Contraction Extent [6]: 96.87%; Lag time [6]: 21.67 min; PHASE 1 % Contraction [6]: 3.26%; PHASE 1 Rate 1 [6]: 2.18 ×10^−3 %/min; PHASE 1 t1 [6]: 10.40 min; PHASE 2 % Contraction [6]: 26.29%; PHASE 2 Rate 2 [6]: 1.50 %/min; PHASE 2 t2 [6]: 29.40 min; PHASE 3 % Contraction [6]: 67.28%; PHASE 3 Rate 3 [6]: 4.96 ×10^−2 %/min; AUC [7]: 4.89 AU; Average Velocity [7]: 0.89 %/min; Clot Contraction Extent [7]: 88.42%; Lag time [7]: 17.80 min; PHASE 1 % Contraction [7]: 3.48%; PHASE 1 Rate 1 [7]: 2.78 ×10^−3 %/min; PHASE 1 t1 [7]: 9.40 min; PHASE 2 % Contraction [7]: 19.02%; PHASE 2 Rate 2 [7]: 1.10 %/min; PHASE 2 t2 [7]: 26.00 min; PHASE 3 % Contraction [7]: 65.92%; PHASE 3 Rate 3 [7]: 3.32 ×10^−2 %/min; Efficiency of contraction (fibrinogen 1,000 μg/mL): too high for efficient contraction; AUC [8]: 6.18 AU; Average Velocity [8]: 0.69 %/min; Clot Contraction Extent [8]: 68.91%; Lag time [8]: 39.80 min; PHASE 1 % Contraction [8]: 4.20%; PHASE 1 Rate 1 [8]: 3.03 ×10^−3 %/min; PHASE 1 t1 [8]: 11.80 min; PHASE 2 % Contraction [8]: 10.11%; PHASE 2 Rate 2 [8]: 0.70 %/min; PHASE 2 t2 [8]: 25.40 min; PHASE 3 % Contraction [8]: 54.53%; PHASE 3 Rate 3 [8]: 1.92 ×10^−2 %/min; Fibrinogen concentrations with highest extent and average velocity of contraction (fibrinogen 62.5 to 1,000 μg/mL): highest at 125 and 250

**Q.** What does the source list for `O=CC[C@@H](O)[C@H](O)[C@H](O)CO` [2DG, 2-deoxyglucose, reference compound]?
**A.** Reduction of Phase 3 rate (10 mM 2DG): ~5 fold; AUC (2DG 5 mM, standard conditions): 6.10 AU; Average Velocity (2DG 5 mM, standard conditions): 0.74 %/min; Clot Contraction Extent (2DG 5 mM, standard conditions): 72.66%; Lag time (2DG 5 mM, standard conditions): 23.33 min; PHASE 1 % Contraction (2DG 5 mM, standard conditions): 2.68%; PHASE 1 Rate 1 (2DG 5 mM, standard conditions): 2.00 ×10^−3 %/min; PHASE 1 t1 (2DG 5 mM, standard conditions): 11.67 min; PHASE 2 % Contraction (2DG 5 mM, standard conditions): 16.98%; PHASE 2 Rate 2 (2DG 5 mM, standard conditions): 0.88 %/min; PHASE 2 t2 (2DG 5 mM, standard conditions): 30.33 min; PHASE 3 % Contraction (2DG 5 mM, standard conditions): 53%; PHASE 3 Rate 3 (2DG 5 mM, standard conditions): 1.83 ×10^−2 %/min; AUC (2DG 10 mM, standard conditions): 7.44 AU; Average Velocity (2DG 10 mM, standard conditions): 0.51 %/min; Clot Contraction Extent (2DG 10 mM, standard conditions): 50.55%; Lag time (2DG 10 mM, standard conditions): 37.00 min; PHASE 1 % Contraction (2DG 10 mM, standard conditions): 5.82%; PHASE 1 Rate 1 (2DG 10 mM, standard conditions): 3.33 ×10^−3 %/min; PHASE 1 t1 (2DG 10 mM, standard conditions): 23.33 min; PHASE 2 % Contraction (2DG 10 mM, standard conditions): 13.04%; PHASE 2 Rate 2 (2DG 10 mM, standard conditions): 0.69 %/min; PHASE 2 t2 (2DG 10 mM, standard conditions): 44.33 min; PHASE 3 % Contraction (2DG 10 mM, standard conditions): 31.68%; PHASE 3 Rate 3 (2DG 10 mM, standard conditions): 0.87 ×10^−2 %/min; Detection of the three phases of contraction (2DG 25 mM): none of the three phases were detectible; AUC (2DG 25 mM, standard conditions): 8.57 AU; Average Velocity (2DG 25 mM, standard conditions): 0.24 %/min; Clot Contraction Extent (2DG 25 mM, standard conditions): 23.45%; Lag time (2DG 25 mM, standard conditions): 99.00 min; Effect on average velocity (varying 2DG concentrations): significant inhibitory effects; Effect on extent of contraction (varying 2DG concentrations): significant inhibitory effects; Effect on lag time (varying 2DG concentrations): prolonged lag time
